Laboratory results from US20090062401A1, “DECALINE-DERIVED COMPOUNDS AS […] ACTIVE AGENTS” (UNIVERSITAT DORTMUND, priority 2004, published 2009).

Key:
VHR = VHR (Homo sapiens, UniProt P51452); experiment: VHR phosphatase inhibition, general phosphatase assay using para-nitrophenylphosphate; assay type: biochemical; conditions: read-out: IC50 Target VHR
Excerpt: (§1) Assays protocols for the other enzymes mentioned herein (MtPTPA, PP1, VHR, PTP1B) are disclosed in Schweizer R A S, Atanasov, G A, Frey B M, and Odermatt A, Mol. Cell. Endocrinol. 2003, 212, 41-49 and Barratte, B., Meijer L., Galaktionov K. & Beach D, Anticancer Res. 1992, 12, 873-880. For determination of the phosphatase activity, a general phosphatase assay using para-nitrophenylphosphate was applied.

11beta-HSD1 = 11beta-HSD1 (Homo sapiens, UniProt P28845); experiment: biochemical; conditions: read-out: IC50 Target 11beta-HSD1
Chain of 11beta-HSD1 (P28845 whole entry): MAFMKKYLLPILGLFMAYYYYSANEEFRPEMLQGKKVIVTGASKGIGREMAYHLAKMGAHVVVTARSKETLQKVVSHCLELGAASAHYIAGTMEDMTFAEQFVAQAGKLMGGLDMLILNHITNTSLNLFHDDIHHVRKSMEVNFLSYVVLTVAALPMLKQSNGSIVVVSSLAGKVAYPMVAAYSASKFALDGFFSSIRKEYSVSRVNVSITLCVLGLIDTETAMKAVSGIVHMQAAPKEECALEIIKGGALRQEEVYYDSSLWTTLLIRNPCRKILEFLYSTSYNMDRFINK
Excerpt: (§2) Assay protocols for Cdc25A, 11βHSD1, 11βHSD2, and AChE are described in detain in the publication of Koch M A, Wittenberg L O, Basu S, Jeyaraj D A, Gourzoulidou E, Reinecke K, Odermatt A, Waldmann H (Proc. Natl. Acad. Sci. U.S.A. 2004 Nov. 30; 101(48):16721-6) and in Koch M A et al., Proc. Natl. Acad. Sci. U.S.A. 2005 Nov. 29; 102 (48):17272-7.

Cdc25A = molecular target: T1, Cdc25A (Homo sapiens, UniProt P30304); experiment: Cdc25A phosphatase inhibition; assay type: biochemical; conditions: read-out: IC50 Target Cdc25A
T1 sequence (P30304 1-524): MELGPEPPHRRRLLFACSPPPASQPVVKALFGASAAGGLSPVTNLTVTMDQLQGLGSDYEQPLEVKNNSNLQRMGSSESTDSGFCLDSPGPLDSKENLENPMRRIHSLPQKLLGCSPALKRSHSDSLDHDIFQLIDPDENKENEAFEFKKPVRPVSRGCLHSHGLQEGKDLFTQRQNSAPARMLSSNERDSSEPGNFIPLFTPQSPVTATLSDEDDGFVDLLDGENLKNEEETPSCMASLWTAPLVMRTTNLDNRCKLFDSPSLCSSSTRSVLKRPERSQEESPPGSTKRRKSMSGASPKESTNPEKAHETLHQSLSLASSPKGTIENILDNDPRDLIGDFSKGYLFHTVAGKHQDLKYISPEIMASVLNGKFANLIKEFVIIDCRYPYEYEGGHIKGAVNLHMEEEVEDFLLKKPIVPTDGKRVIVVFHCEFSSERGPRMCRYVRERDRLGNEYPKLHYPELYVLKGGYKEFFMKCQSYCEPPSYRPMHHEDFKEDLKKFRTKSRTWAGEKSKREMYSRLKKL
Excerpt: as §2

PTP1B = molecular target: T2, PTP1B (Homo sapiens, UniProt P18031); experiment: PTP1B phosphatase inhibition, general phosphatase assay using para-nitrophenylphosphate; assay type: biochemical; conditions: read-out: IC50 Target PTP1B
T2 sequence (P18031 1-435): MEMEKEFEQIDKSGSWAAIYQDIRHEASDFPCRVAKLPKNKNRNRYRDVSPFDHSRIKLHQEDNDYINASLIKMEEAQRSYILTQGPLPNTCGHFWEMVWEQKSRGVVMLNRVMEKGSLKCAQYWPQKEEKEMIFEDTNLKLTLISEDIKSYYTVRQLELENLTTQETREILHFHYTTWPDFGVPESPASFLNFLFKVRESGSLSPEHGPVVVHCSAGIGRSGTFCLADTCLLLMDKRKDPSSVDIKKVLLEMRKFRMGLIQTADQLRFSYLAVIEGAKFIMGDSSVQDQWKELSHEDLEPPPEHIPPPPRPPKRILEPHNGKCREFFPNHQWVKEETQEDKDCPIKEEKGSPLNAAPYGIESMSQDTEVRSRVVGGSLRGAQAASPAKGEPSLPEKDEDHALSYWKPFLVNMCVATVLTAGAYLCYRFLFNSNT
Excerpt: as §1

MPTPA = MPTPA (Mycobacterium tuberculosis, UniProt P9WIA1); experiment: MtPTPA phosphatase inhibition, general phosphatase assay using para-nitrophenylphosphate; assay type: biochemical; conditions: read-out: IC50 Target MPTPA
Chain of MPTPA (P9WIA1 whole entry): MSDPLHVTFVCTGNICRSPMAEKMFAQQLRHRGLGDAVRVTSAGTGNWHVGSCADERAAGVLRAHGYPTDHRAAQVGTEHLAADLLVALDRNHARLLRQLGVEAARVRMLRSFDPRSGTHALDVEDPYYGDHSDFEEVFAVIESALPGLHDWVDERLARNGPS
Excerpt: as §1

Chain of VHR (P51452 whole entry, species assumed): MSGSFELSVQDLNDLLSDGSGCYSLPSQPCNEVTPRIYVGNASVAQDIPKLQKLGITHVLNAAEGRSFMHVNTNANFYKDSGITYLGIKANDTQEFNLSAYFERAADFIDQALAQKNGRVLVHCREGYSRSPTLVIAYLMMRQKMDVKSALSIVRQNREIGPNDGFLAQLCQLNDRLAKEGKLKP

Row | Structure (SMILES) | IC50 (VHR) [µM] | IC50 (11beta-HSD1) [µM] | IC50 (Cdc25A) [µM] | IC50 (PTP1B) [µM] | IC50 (MPTPA) [µM]
1 | CC1=C2CCC[C@H](O)[C@@]2(C)C/C(=C\c2ccc(F)c(F)c2)C1=O [Compound 1, (3E,4aS,5S)-3-(3,4-Difluorbenzyliden)-4,4a,5,6,7,8-hexahydro-5-hydroxy-1,4a-dimethyl-naphthalen-2(3H)-one] | 10 to 50 | < 10 |  |  | 
2 | CC1=C2CCC[C@H](O)[C@@]2(C)C/C(=C\c2cccnc2)C1=O [Compound 10, (3E,4aS,5S)-4,4a,5,6,7,8-Hexahydro-5-hydroxy-1,4a-dimethyl-3-[(pyridin-3-yl)methylen]naphthalen-2(3H)-one] |  | < 10 |  |  | 
3 | CSc1ccc(/C=C2\C[C@@]3(C)C(=C(C)C2=O)CCC[C@@H]3O)cc1 [Compound 11, (3E,4aS,5S)-3-[4-(Methylthio)benzyliden]-4,4a,5,6,7,8-hexahydro-5-hydroxy-1,4a-dimethylnaphthalen-2(3H)-one] |  | < 10 |  |  | 
4 | COc1ccc(/C=C2\C[C@@]3(C)C(=C(C)C2=O)CCC[C@@H]3O)c(O)c1 [Compound 14, (3E,4aS,5S)-3-(2-Hydroxy-4-methoxybenzyliden)-4,4a,5,6,7,8-hexahydro-5-hydroxy-1,4a-dimethylnaphthalen-2(3H)-one] |  | < 10 |  |  | 
5 | CCCCCCCCCCC/C=C1\C[C@@]2(C)C(=C(C)C1=O)CCC[C@@H]2O [Compound 22, (3E,4aS,5S)-3-Dodecyliden-4,4a,5,6,7,8-hexahydro-5-hydroxy-1,4a-dimethylnaphthalen-2(3H)-one] |  | < 10 |  |  | 
6 | CCc1ccc(/C=C2\C[C@@]3(C)C(=C(C)C2=O)CCC[C@@H]3O)c(C)c1 [Compound 23, (3E,4aS,5S)-3-(4-Ethyl-2-methylbenzyliden)-4,4a,5,6,7,8-hexahydro-5-hydroxy-1,4a-dimethylnaphthalen-2(3H)-one] |  | < 10 |  |  | 
7 | CCCCC#Cc1ccc(/C=C2\C[C@@]3(C)C(=C(C)C2=O)CCC[C@@H]3O)cc1 [Compound 40, (3E,4aS,5S)-3-[4-(Hex-1-inyl)benzyliden]-4,4a,5,6,7,8-hexahydro-5-hydroxy-1,4a-dimethyl-naphthalen-2(3H)-one] | 10 to 50 |  | 10 to 50 | 10 to 50 | 
8 | CC1=C2CCC[C@H](O)[C@@]2(C)C/C(=C\c2ccc(C#CC(C)(C)O)cc2)C1=O [Compound 44, (3E,4aS,5S)-3-[4-(3-Hydroxy-3-methylbut-1-inyl)benzyliden]-4,4a,5,6,7,8-hexahydro-5-hydroxy-1,4a-dimethyl-naphthalen-2(3H)-one] | 10 to 50 |  | 10 to 50 | 10 to 50 | 
9 | CCOC(C#Cc1ccc(/C=C2\C[C@@]3(C)C(=C(C)C2=O)CCC[C@@H]3O)cc1)OCC [Compound 46, (3E,4aS,5S)-3-[4-(3,3-Diethoxyprop-1-inyl)benzyliden]-4,4a,5,6,7,8-hexahydro-5-hydroxy-1,4a-dimethylnaphthalen-2(3H)-on] | 10 to 50 |  | < 10 | 10 to 50 | 
10 | CC1=C2CCC[C@H](O)[C@@]2(C)C/C(=C\c2ccc(C#CCN(C)C)cc2)C1=O [Compound 51, (3E,4aS,5S)-3-{4-[3-(Dimethylamino)prop-1-inyl]benzyliden}-4,4a,5,6,7,8-hexahydro-5-hydroxy-1,4a-dimethylnaphthalen-2(3H)-one] | 10 to 50 |  | < 10 | 10 to 50 | 
11 | CC1=C2CCC[C@H](O)[C@@]2(C)C/C(=C\C=C\c2ccco2)C1=O [Compound 60, (3E,4aS,5S)-3-[(E)-3-(Furan-2-yl)allyliden]-4,4a,5,6,7,8-hexahydro-5-hydroxy-1,4a-dimethylnaphthalen-2(3H)-one] | 10 to 50 |  | 10 to 50 | 10 to 50 | 
12 | CC1=C2CCC[C@H](O)[C@@]2(C)C/C(=C\c2ccc(Br)cc2)C1=O [Compound 65, (3E,4aS,5S)-3-(4-Brombenzyliden)-4,4a,5,6,7,8-hexahydro-5-hydroxy-1,4a-dimethylnaphthalen-2(3H)-one] |  | 10 to 50 |  |  | 
13 | CC1=C2CCC[C@H](O)[C@@]2(C)C/C(=C\c2ccc(C#CC3CCCCC3)cc2)C1=O [Compound 73, (3E,4aS,5S)-3-[4-(2-Cyclohexyl-ethinyl)benzyliden]-4,4a,5,6,7,8-hexahydro-5-hydroxy-1,4a-dimethylnaphthalen-2(3H)-one] |  | < 10 |  |  | 
14 | C=C1C(C)=C2CCC[C@H](O)[C@@]2(C)C/C1=C\c1ccccc1 [Compound 97, (1S,7E,8aS)-7-Benzyliden-1,2,3,4,6,7,8,8a-octahydro-5,8a-dimethyl-6-methylennaphthalen-1-ol] |  | < 10 |  |  | 
15 | C=C1C(C)=C2CCC[C@H](O)[C@@]2(C)C/C1=C\CCCC [Compound 98, (1S,7E,8aS)-1,2,3,4,6,7,8,8a-Octahydro-5,8a-dimethyl-6-methylen-7-pentylidennaphthalen-1-ol] |  | < 10 |  |  | 
16 | CCCCCCC#Cc1ccc(/C=C2\C[C@@]3(C)C(CCC[C@@H]3O)C(C)C2=O)cc1 (stereo partly drawn) [Compound 125, (E,4aS,5S)-3-[4-(Oct-1-inyl)-benzyliden]-octahydro-5-hydroxy-1,4a-dimethylnaphthalen-2(1H)-one] | 10 to 50 |  |  |  | 10 to 50
17 | CCCCCCCCCCCCCCC#Cc1ccc(/C=C2\C[C@@]3(C)C(CCC[C@@H]3O)C(C)C2=O)cc1 (stereo partly drawn) [Compound 127, (E,4aS,5S)-3-[4-(Hexadec-1-inyl)benzyliden]-octahydro-5-hydroxy-1,4a-dimethylnaphthalen-2(1H)-one] | 10 to 50 |  |  |  | 10 to 50
18 | CCCCCCCCCCCCCCC#Cc1ccc(/C=C2\C[C@@]3(Cc4ccccc4)C(=C(C)C2=O)CCC[C@@H]3O)cc1 [Compound 128, (3E,4aS,5S)-3-[4-(Hexadec-1-inyl)benzyliden]-4a-benzyl-4,4a,5,6,7,8-hexahydro-5-hydroxy-1-methylnaphthalen-2(3H)-one] | 10 to 50 |  |  |  | 10 to 50
19 | CCN(CC)C1CC[C@@]2(C)C(=C1C)CCC[C@@H]2O (stereo partly drawn) [Compound 388, (1S,8aS)-6-(Diethylamino)-1,2,3,4,6,7,8,8a-octahydro-5,8a-dimethylnaphthalen-1-ol] |  |  |  |  | 10 to 50
20 | CC1C=CCC2CCC(=Cc3ccco3)C(=O)C12 (stereo not shown) [Compound 394, 2-Furan-2-ylmethylene-8-methyl-3,4,4a,5,8,8a-hexahydro-2H-naphthalen-1-one] | 10 to 50 |  | 10 to 50 | < 10 | 
21 | CC1(Cc2cccc(I)c2)C(=O)CC[C@@]2(C)C1CCC[C@@H]2O (stereo partly drawn) [Compound 398, (4aS,5S)-5-Hydroxy-1-(3-iodo-benzyl)-1,4a-dimethyl-octahydro-naphthalen-2-one] | 10 to 50 |  | 10 to 50 | 10 to 50 | 
22 | CC1=C2CCC[C@H](O)[C@@]2(C)CC(=Cc2ccc(NC3CCCCC3)cc2)C1=O [Compound 399, (4aS,5S)-3-(4-Cyclohexylamino-benzylidene)-5-hydroxy-1,4a-dimethyl-4,4a,5,6,7,8-hexahydro-3H-naphthalen-2-one] |  | < 10 |  |  | 
23 | CC1C=CCC2CCCC(=O)C12 (stereo not shown) [Compound 407, 8-Methyl-3,4,4a,5,8,8a-hexahydro-2H-naphthalen-1-one] |  | < 10 |  |  | 
24 | CC1(Cc2cc(Br)cc(Br)c2)C(=O)/C(=C/c2ccc(I)cc2)CC2(C)C1CCCC21OCCO1 (stereo not shown) [Compound 416, (7′E)-5′-(3,5-Dibromobenzyl)-7′-(4-iodo-benzylidene)-5′,8a′-dimethylhexahydro-2′H-spiro[1,3-dioxolane-2,1′-naphthalen]-6′(5′H)-one] |  | < 10 |  | 10 to 50 | 
